Legend:
Conditions in all cases: treatment: drug alone; 5 days
[1] = test system: 786-O; experiment: GI50, drug alone; higher = less potent
Protocol: (§1)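 Primary HTS: 8 RCC cell lines treated with 8 doses (up to 10 uM) of each library drug alone for 5 days; viability read by CellTiter-Glo and normalised to DMSO. GI50 was fitted with XLfit (4-parameter), AUC is the area under the dose-response curve, and minimum viability is the lowest fraction of DMSO viability across doses.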

[2] = test system: A498; experiment: GI50, drug alone; higher = less potent
Protocol: as §1

[3] = test system: UO-31; experiment: GI50, drug alone; higher = less potent
Protocol: as §1

[4] = test system: TK-10; experiment: GI50, drug alone; higher = less potent
Protocol: as §1

[5] = test system: SN12C; experiment: GI50, drug alone; higher = less potent
Protocol: as §1

[6] = test system: 769-P; experiment: GI50, drug alone; higher = less potent
Protocol: as §1

[7] = test system: ACHN; experiment: GI50, drug alone; higher = less potent
Protocol: as §1

[8] = test system: CAKI-1; experiment: GI50, drug alone; higher = less potent
Protocol: as §1

[9] = test system: 786-O; experiment: minimum viability across doses, drug alone, relative to DMSO (fraction); higher = less growth inhibition
Protocol: as §1

[10] = test system: A498; experiment: as above
Protocol: as §1

[11] = test system: UO-31; experiment: as above
Protocol: as §1

[12] = test system: TK-10; experiment: as above
Protocol: as §1

[13] = test system: SN12C; experiment: as above
Protocol: as §1

[14] = test system: 769-P; experiment: as above
Protocol: as §1

[15] = test system: ACHN; experiment: as above
Protocol: as §1

[16] = test system: CAKI-1; experiment: as above
Protocol: as §1

[17] = test system: 786-O; experiment: AUC of dose-response viability curve, drug alone (arbitrary (AUC of normalised viability)); higher = less growth inhibition
Protocol: as §1

[18] = test system: A498; experiment: as above
Protocol: as §1

[19] = test system: UO-31; experiment: as above
Protocol: as §1

[20] = test system: TK-10; experiment: as above
Protocol: as §1

[21] = test system: SN12C; experiment: as above
Protocol: as §1

[22] = test system: 769-P; experiment: as above
Protocol: as §1

[23] = test system: ACHN; experiment: as above
Protocol: as §1

[24] = test system: CAKI-1; experiment: as above
Protocol: as §1

Row | SMILES | GI50, drug alone [1] | GI50, drug alone [2] | GI50, drug alone [3] | GI50, drug alone [4] | GI50, drug alone [5] | GI50, drug alone [6] | GI50, drug alone [7] | GI50, drug alone [8] | minimum viability across doses [9] | minimum viability across doses [10] | minimum viability across doses [11] | minimum viability across doses [12] | minimum viability across doses [13] | minimum viability across doses [14] | minimum viability across doses [15] | minimum viability across doses [16] | AUC of dose-response viability curve [17] | AUC of dose-response viability curve [18] | AUC of dose-response viability curve [19] | AUC of dose-response viability curve [20] | AUC of dose-response viability curve [21] | AUC of dose-response viability curve [22] | AUC of dose-response viability curve [23] | AUC of dose-response viability curve [24]
1 | CNC(=O)c1cc(Oc2ccc(NC(=O)Nc3cc(C(C)(C)C)nn3-c3ccc4ncccc4c3)c(F)c2)ccn1 [DCC-2036 (Rebastinib)] | 3760 nM | 7590 nM | 1720 nM | 2140 nM | 2920 nM | > 10000 nM | 1790 nM | 1250 nM | 0.359 | 0.0163 | 0.00743 | 0.0459 | 0.0299 | 0.752 | 0.0439 | 0.104 | 2.8 | 3.2 | 4.08 | 2.94 | 2.95 | 3.43 | 2.92 | 2.63
2 | CN1CCN(c2ccc3nc(-c4c(N)c5c(F)cccc5[nH]c4=O)[nH]c3c2)CC1 [Dovitinib (TKI-258)] | 6950 nM | 6940 nM | 3540 nM | 2260 nM | 956 nM | 2560 nM | 510 nM | 451 nM | 0.395 | 0.351 | 0.207 | 0.252 | 0.079 | 0.0627 | 0.116 | 0.13 | 3.27 | 3.15 | 3.69 | 2.5 | 2.36 | 2.64 | 2.18 | 2.18
3 | CC(O)C(=O)O.CC(O)C(=O)O.CN1CCN(c2ccc3nc(-c4c(N)c5c(F)cccc5[nH]c4=O)[nH]c3c2)CC1 [Dovitinib Dilactic acid (TKI258 Dilactic acid)] | 2900 nM | > 10000 nM | 6520 nM | 3160 nM | 1160 nM | 3050 nM | 303 nM | 430 nM | 0.191 | 0.494 | 0.342 | 0.304 | 0.0691 | 0.034 | 0.107 | 0.0485 | 2.9 | 4.64 | 4.66 | 2.61 | 2.38 | 3.15 | 2 | 2.21
4 | COc1cc2nccc(Oc3ccc(NC(=O)NC4CC4)c(Cl)c3)c2cc1C(N)=O [E7080 (Lenvatinib)] | > 10000 nM | > 10000 nM | > 10000 nM | > 10000 nM | > 10000 nM | > 10000 nM | > 10000 nM | 2270 nM | 0.786 | 0.941 | 1.18 | 0.806 | 0.734 | 0.907 | 0.532 | 0.267 | 3.13 | 3.79 | 2.25 | 3.24 | 3.21 | 3.46 | 3.06 | 2.71
5 | Cc1cc(Nc2cc(N3CCN(C)CC3)nc(/C=C/c3ccccc3)n2)n[nH]1.O=C(O)[C@H](O)[C@@H](O)C(=O)O [ENMD-2076] | 518 nM | 4110 nM | 1560 nM | 1150 nM | 1090 nM | 2000 nM | 344 nM | 456 nM | 0.0558 | 0.427 | 0.0165 | 0.146 | 0.162 | 0.227 | 0.109 | 0.038 | 1.82 | 3.06 | 3.01 | 2.31 | 2.46 | 2.64 | 2.1 | 2.02
6 | C#Cc1cccc(Nc2ncnc3cc(OCCOC)c(OCCOC)cc23)c1.Cl [Erlotinib HCl] | > 10000 nM | > 10000 nM | > 10000 nM | 5250 nM | > 10000 nM | 3680 nM | 1040 nM | 3610 nM | 0.549 | 0.915 | 0.961 | 0.471 | 0.731 | 0.39 | 0.137 | 0.183 | 3.37 | 3.55 | 3.8 | 2.59 | 3.46 | 2.66 | 2.43 | 2.99
7 | CO[C@H]1C[C@@H]2CC[C@@H](C)[C@@](O)(O2)C(=O)C(=O)N2CCCC[C@H]2C(=O)O[C@H]([C@H](C)C[C@@H]2CC[C@@H](OCCO)[C@H](OC)C2)CC(=O)[C@H](C)/C=C(\C)[C@@H](O)[C@@H](OC)C(=O)[C@H](C)C[C@H](C)/C=C/C=C/C=C/1C [Everolimus (RAD001)] | 3.85 nM | > 10000 nM | 99.2 nM | > 10000 nM | > 10000 nM | > 10000 nM | 278 nM | 1180 nM | 0.293 | 0.851 | 0.314 | 0.538 | 0.631 | 0.56 | 0.39 | 0.406 | 1.21 | 3.45 | 1.96 | 2.3 | 2.56 | 2.37 | 1.85 | 2.14
8 | CN1CC[C@H](c2c(O)cc(O)c3c(=O)cc(-c4ccccc4Cl)oc23)[C@H](O)C1.Cl [Flavopiridol hydrochloride] | 36.9 nM | 262 nM | 125 nM | 140 nM | 174 nM | 225 nM | 70.7 nM | 170 nM | 0.00454 | 0.0135 | 0.0096 | 0.14 | 0.0105 | 0.0149 | 0.00461 | 0.0716 | 0.837 | 1.92 | 1.74 | 1.57 | 1.63 | 1.84 | 1.27 | 1.85
9 | CC(C)NC[C@@H](C(=O)N1CCN(c2ncnc3c2[C@H](C)C[C@H]3O)CC1)c1ccc(Cl)cc1 [GDC-0068] | 251 nM | > 10000 nM | 3090 nM | 2260 nM | > 10000 nM | > 10000 nM | 9240 nM | 8110 nM | 0.252 | 0.82 | 0.0182 | 0.375 | 0.758 | 0.81 | 0.529 | 0.52 | 1.88 | 4.05 | 3.66 | 2.3 | 2.98 | 3.51 | 2.85 | 3.21
10 | OCCn1cc(-c2ccc3c(c2)CC/C3=N\O)c(-c2ccncc2)n1 [GDC-0879] | > 10000 nM | > 10000 nM | > 10000 nM | > 10000 nM | > 10000 nM | > 10000 nM | > 10000 nM | > 10000 nM | 0.716 | 1.05 | 1.18 | 0.937 | 0.999 | 0.92 | 0.745 | 0.98 | 2.97 | 4.12 | 5.03 | 3.5 | 3.81 | 3.52 | 3.54 | 4.13
11 | CS(=O)(=O)N1CCN(Cc2cc3nc(-c4cccc5[nH]ncc45)nc(N4CCOCC4)c3s2)CC1 [GDC-0941] | 1530 nM | 6940 nM | 2660 nM | 660 nM | 1940 nM | 1540 nM | 690 nM | 563 nM | 0.254 | 0.397 | 0.227 | 0.207 | 0.323 | 0.221 | 0.264 | 0.149 | 2.46 | 3.39 | 3.82 | 2.27 | 2.56 | 2.65 | 2.41 | 2.28
12 | Cc1c(CN2CCN(C(=O)[C@H](C)O)CC2)sc2c(N3CCOCC3)nc(-c3cnc(N)nc3)nc12 [GDC-0980 (RG7422)] | 495 nM | 1360 nM | 311 nM | 167 nM | 370 nM | 495 nM | 231 nM | 190 nM | 0.0296 | 0.215 | 0.0186 | 0.0656 | 0.133 | 0.0688 | 0.0739 | 0.0405 | 2.23 | 3.1 | 2.23 | 1.73 | 2.07 | 2.2 | 1.89 | 1.75
13 | COc1cc2ncnc(Nc3ccc(F)c(Cl)c3)c2cc1OCCCN1CCOCC1 [Gefitinib (Iressa)] | > 10000 nM | > 10000 nM | > 10000 nM | 1520 nM | > 10000 nM | > 10000 nM | 1240 nM | 5880 nM | 0.781 | 1.05 | 0.872 | 0.269 | 0.693 | 0.536 | 0.179 | 0.281 | 3.22 | 4.53 | 4.31 | 2.43 | 3.15 | 2.66 | 2.4 | 3.04
14 | CN1CCN(C2CCN(C(=O)Nc3cc(Oc4ccc(NC(=O)C5(C(=O)Nc6ccc(F)cc6)CC5)c(F)c4)ccn3)CC2)CC1 [Golvatinib (E7050)] | 4230 nM | > 10000 nM | 9860 nM | 2590 nM | 7830 nM | 9710 nM | 1510 nM | 3060 nM | 0.0352 | 0.613 | 0.471 | 0.284 | 0.346 | 0.423 | 0.0761 | 0.0988 | 2.78 | 4.37 | 5.28 | 2.56 | 3.38 | 3.55 | 2.67 | 3.05
15 | CCOC(=O)C1=C(N)Oc2ccc(Br)cc2[C@H]1[C@H](C#N)C(=O)OCC [HA14-1] | > 10000 nM | > 10000 nM | > 10000 nM | > 10000 nM | > 10000 nM | > 10000 nM | > 10000 nM | > 10000 nM | 0.81 | 0.885 | 0.891 | 0.948 | 0.867 | 0.973 | 0.852 | 0.957 | 3.27 | 3.57 | 4.2 | 3.55 | 3.19 | 3.84 | 3.35 | 3.67
16 | COc1ccc(S(=O)(=O)N(C(C)=O)c2ccccc2/C=C/c2cc[n+]([O-])cc2)cc1 [HMN-214] | 116 nM | 378 nM | 455 nM | 694 nM | 714 nM | 541 nM | 262 nM | 293 nM | 0.00365 | 0.119 | 0.00366 | 0.285 | 0.167 | 0.0968 | 0.127 | 0.182 | 1.3 | 2.36 | 2.75 | 2.14 | 2.47 | 2.36 | 2.14 | 2.1
17 | CCS(=O)(=O)Nc1ccc2c(c1)/C(=C(/Nc1ccc(CN3CCCCC3)cc1)c1ccccc1)C(=O)N2 [Hesperadin] | 63.9 nM | 2500 nM | 2490 nM | 1460 nM | 199 nM | 1180 nM | 111 nM | 189 nM | 0.0109 | 0.0284 | 0.0115 | 0.0523 | 0.00306 | 0.0547 | 0.00749 | 0.0394 | 1.54 | 3.72 | 3.32 | 2.46 | 1.86 | 2.53 | 1.63 | 1.85
